Measured values as given in BindingDB's records for doi:10.1080/14756360802188420 (Bahauddin Zakariya University, 2009).

Molecular target: Urease (Canavalia ensiformis, UniProt P07374)
Assay: Inhibition Assay
Text: Inhibition assay using urease from jack bean.

Chain of Urease (P07374 whole entry): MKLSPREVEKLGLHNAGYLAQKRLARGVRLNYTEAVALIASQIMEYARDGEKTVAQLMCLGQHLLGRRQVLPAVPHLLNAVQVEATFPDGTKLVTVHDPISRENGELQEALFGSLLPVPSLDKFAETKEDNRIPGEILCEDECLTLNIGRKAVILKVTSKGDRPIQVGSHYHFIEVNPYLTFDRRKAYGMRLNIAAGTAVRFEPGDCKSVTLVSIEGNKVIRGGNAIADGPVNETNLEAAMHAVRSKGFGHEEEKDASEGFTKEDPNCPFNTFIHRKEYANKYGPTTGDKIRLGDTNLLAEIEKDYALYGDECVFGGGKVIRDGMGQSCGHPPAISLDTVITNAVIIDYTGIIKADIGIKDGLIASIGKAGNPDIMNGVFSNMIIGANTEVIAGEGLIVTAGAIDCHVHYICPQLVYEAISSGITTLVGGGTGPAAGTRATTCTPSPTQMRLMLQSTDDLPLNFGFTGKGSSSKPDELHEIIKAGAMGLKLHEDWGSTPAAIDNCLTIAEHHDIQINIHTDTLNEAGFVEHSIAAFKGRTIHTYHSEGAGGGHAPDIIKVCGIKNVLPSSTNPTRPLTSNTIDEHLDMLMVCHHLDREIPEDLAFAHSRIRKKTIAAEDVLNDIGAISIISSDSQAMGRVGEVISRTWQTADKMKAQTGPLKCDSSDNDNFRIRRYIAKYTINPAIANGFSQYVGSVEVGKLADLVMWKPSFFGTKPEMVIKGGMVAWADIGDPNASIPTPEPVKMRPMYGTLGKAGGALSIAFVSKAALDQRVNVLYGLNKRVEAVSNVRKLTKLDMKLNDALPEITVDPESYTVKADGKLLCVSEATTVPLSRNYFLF

O=C1Nc2ccccc2/C1=N/NC(=S)Nc1c(Cl)cc(Cl)cc1Cl [Thiosemicarbazone, 2l]
IC50: 28.6 µM
